In paper PMC8514580, “Insight into the interaction between the RNA helicase CGH-1 and EDC-3 and its implications” (Scientific Reports, 2021):
Changes are numbered by the printed parent chain. No end group written: not given here.

Assays:
CGH-1_248-420^WT = molecular target: T1, CGH-1_248-420^WT (Caenorhabditis elegans, UniProt Q95YF3); assay: ITC binding to CGH-1_248–420 WT; parameters: species or system C. elegans
T1 construct: the cDNA fragments encoding CGH-1 RecA2 (residues 248–420); made in house; host or cells: E. coli Gold (DE3)
T1 sequence (Q95YF3 248-420): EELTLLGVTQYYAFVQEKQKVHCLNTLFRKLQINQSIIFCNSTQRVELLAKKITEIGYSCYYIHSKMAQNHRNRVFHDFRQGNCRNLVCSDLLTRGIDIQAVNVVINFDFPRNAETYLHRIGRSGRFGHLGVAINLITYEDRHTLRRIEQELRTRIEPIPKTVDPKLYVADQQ
Protocol: (§1) Expression plasmids regarding CGH-1 and CAR-1 were constructed as previously described. In brief, the cDNA fragments encoding CGH-1 RecA2 (residues 248–420), CAR-1 FDF-TFG (residues 184–268) were amplified by PCR from C. elegans genome library and cloned into the NdeI and XhoI site of a modified pET-28a (Novagen) vector (p28a), in which a thrombin protease cleavage site was removed.
(§2) CGH-1 protein expression and purification were performed described as in our most recent paper. In brief, proteins were expressed in E. coli Gold (DE3) strain (Novagen). […] Cells were resuspended in Buffer A (20 mM Tris–HCl, pH 7.5, 1 M NaCl), and then lysed using high pressure at 4 °C. Proteins were initially purified by Ni-chelating resin (Qiagen), and further purified by size exclusion chromatography (SEC) on a Superdex 75 column (GE healthcare) in Buffer A. The purified proteins were dialyzed into Buffer B (20 mM Tris–HCl, pH 7.5, 150 mM NaCl).
(§3) A peptide containing the C. elegans EDC-3 FDF fragment (residues 235–271) and PATR-1 fragment (residues 30–67) were synthesized from GL Biochem (Shanghai, China) Co., Ltd, respectively. Stock solutions of peptide were prepared in Buffer B described above, and were adjusted to pH 7.5 ± 0.02 for subsequent experiments.
(§4) ITC assays were performed as previously described. In brief, it was carried out on a MicroCal PEAQ-ITC (Malvern) at 20 °C with the following settings: reference power, 5 μcal/s; initial delay, 60 s; stir speed, 750 rpm; spacing time, 120 s. Proteins (or its mutants) and peptides were adjusted to 0.05 mM and 0.5 mM, respectively. Experiments were initialed by injection of 1 μl each of peptide into the sample cell (200 μl) filled with protein (or its mutants) solution, followed by 18 injections of 2 μl. The ITC data were fitted with a one-binding-site model using the Origin analysis software.

CGH-1_248-420^H269A = molecular target: T2, CGH-1_248-420^H269A (Caenorhabditis elegans, UniProt Q95YF3, H269A); assay: ITC binding to CGH-1_248–420 H269A; parameters: species or system C. elegans; conditions: 20 °C, pH 7.5, 150 mM NaCl, CGH-1 H269A
T2 construct: the cDNA fragments encoding CGH-1 RecA2 (residues 248–420); made in house; host or cells: E. coli Gold (DE3)
T2 sequence (Q95YF3 248-420 H269A): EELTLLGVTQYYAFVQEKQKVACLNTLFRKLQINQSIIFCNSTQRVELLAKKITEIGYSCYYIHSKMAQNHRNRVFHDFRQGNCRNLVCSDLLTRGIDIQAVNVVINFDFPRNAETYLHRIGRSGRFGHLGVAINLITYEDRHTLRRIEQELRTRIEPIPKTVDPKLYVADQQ
Protocol: as §1, §2, §3
(§5) ITC assays were performed as previously described. […]

CGH-1_248-420^R393A = molecular target: T3, CGH-1_248-420^R393A (Caenorhabditis elegans, UniProt Q95YF3, R393A); assay type: binding, C. elegans; conditions: ITC, 20 °C
T3 construct: the cDNA fragments encoding CGH-1 RecA2 (residues 248–420); made in house; host or cells: E. coli Gold (DE3)
T3 sequence (Q95YF3 248-420 R393A): as the sequence (Q95YF3 248-420 H269A) above, with A22H, R146A counted along it
Protocol: as §1, §2, §3, §4

CGH-1_248-420^F261A = molecular target: T4, CGH-1_248-420^F261A (Caenorhabditis elegans, UniProt Q95YF3, F261A); assay type: binding, C. elegans; conditions: ITC, 20 °C, pH 7.5, 150 mM NaCl; CGH-1 F261A
T4 construct: the cDNA fragments encoding CGH-1 RecA2 (residues 248–420); made in house; host or cells: E. coli Gold (DE3)
T4 sequence (Q95YF3 248-420 F261A): as the sequence (Q95YF3 248-420 H269A) above, with F14A, A22H counted along it
Protocol: as §1, §2, §3, §4

CGH-1_248-420^K277A = molecular target: T5, CGH-1_248-420^K277A (Caenorhabditis elegans, UniProt Q95YF3, K277A); assay type: binding, C. elegans; conditions: ITC, 20 °C
T5 construct: the cDNA fragments encoding CGH-1 RecA2 (residues 248–420); made in house; host or cells: E. coli Gold (DE3)
T5 sequence (Q95YF3 248-420 K277A): as the sequence (Q95YF3 248-420 H269A) above, with A22H, K30A counted along it
Protocol: as §1, §2, §3, §4

CGH-1_248–420 mutants = assay: ITC binding to several CGH-1_248–420 single mutants; parameters: species or system C. elegans; conditions: substitution of each of Phe261, Gln266, His269 with Ala
Protocol: as §1, §2, §3, §5

CGH-1_248-420^Q266A = molecular target: T6, CGH-1_248-420^Q266A (Caenorhabditis elegans, UniProt Q95YF3, Q266A); assay: ITC binding to CGH-1_248–420 Q266A; parameters: species or system C. elegans; conditions: 20 °C, pH 7.5, 150 mM NaCl, CGH-1 Q266A
T6 construct: the cDNA fragments encoding CGH-1 RecA2 (residues 248–420); made in house; host or cells: E. coli Gold (DE3)
T6 sequence (Q95YF3 248-420 Q266A): as the sequence (Q95YF3 248-420 H269A) above, with Q19A, A22H counted along it
Protocol: as §1, §2, §3, §5

CGH-1_248-420^E396A = molecular target: T7, CGH-1_248-420^E396A (Caenorhabditis elegans, UniProt Q95YF3, E396A); assay: ITC binding to CGH-1_248–420 E396A; parameters: species or system C. elegans; conditions: 20 °C
T7 construct: the cDNA fragments encoding CGH-1 RecA2 (residues 248–420); made in house; host or cells: E. coli Gold (DE3)
T7 sequence (Q95YF3 248-420 E396A): as the sequence (Q95YF3 248-420 H269A) above, with A22H, E149A counted along it
Protocol: as §1, §2, §3, §5

CGH-1_248-420^4A = molecular target: T8, CGH-1_248-420^4A (Caenorhabditis elegans, UniProt Q95YF3, C270A/H269A/L274A/T273A); assay: ITC binding to CGH-1_248–420 4A (H269A, C270A, T273A, L274A); parameters: species or system C. elegans; conditions: CGH-1 4A vs WT
T8 construct: the cDNA fragments encoding CGH-1 RecA2 (residues 248–420); made in house; host or cells: E. coli Gold (DE3)
T8 sequence (Q95YF3 248-420 H269A/C270A/T273A/L274A limits assumed): T1 sequence (Q95YF3 248-420) with H22A, C23A, T26A, L27A
Protocol: as §1, §2, §3, §4

CGH-1_248-420^K277E = molecular target: T9, CGH-1_248-420^K277E (Caenorhabditis elegans, UniProt Q95YF3, K277E); assay: ITC binding to CGH-1_248–420 K277E; parameters: species or system C. elegans; conditions: 20 °C
T9 construct: the cDNA fragments encoding CGH-1 RecA2 (residues 248–420); made in house; host or cells: E. coli Gold (DE3)
T9 sequence (Q95YF3 248-420 K277E): as the sequence (Q95YF3 248-420 H269A) above, with A22H, K30E counted along it
Protocol: as §1, §2, §3, §5

**Q.** Which Kd (CGH-1_248-420^WT) does the source give for “LADPIDFDLDSDFDFAENLKLFEKDENDDQYYETVEK [EDC-3_235–271]” here?
**A.** The Kd was 340 ± 20 nM.

**Q.** And the “− TΔS” value (CGH-1_248-420^WT; ITC, 20 °C, pH 7.5, 150 mM NaCl, CGH-1_248–420 WT)?
**A.** Its value is 8.94 kcal/mol.

**Q.** What about the “binding affinity of EDC-3 FDF-FEK motif relative to corresponding region of CAR-1 (by KD)” value (CGH-1_248-420^WT; ITC, CGH-1_248–420, 0.34 μM (this work) vs 43 μM (ref 17)) of the same sequence?
**A.** Its value is > 126 times.

**Q.** What about the “binding affinity relative to CAR-1_184–268 (by KD)” value (CGH-1_248-420^WT; ITC, CGH-1_248–420 WT, 0.34 μM vs 3.03 μM) of the same sequence?
**A.** Its value is “approximately ninefold stronger”.

**Q.** And the “− TΔS” value (CGH-1_248-420^H269A)?
**A.** The value was 4.97 kcal/mol.

**Q.** What about the “− TΔS” value (CGH-1_248-420^R393A; pH 7.5, 150 mM NaCl, CGH-1 R393A) of the same sequence?
**A.** The value was 9.68 kcal/mol.

**Q.** What about the “KD(mut) / KD(wt)” value (CGH-1_248-420^R393A; CGH-1 R393A vs WT) of the same sequence?
**A.** The value was ~ 6.1.

**Q.** What about the “− TΔS” value (CGH-1_248-420^F261A) of the same sequence?
**A.** Its value is 6.17 kcal/mol.

**Q.** And the “− TΔS” value (CGH-1_248-420^K277A; pH 7.5, 150 mM NaCl, CGH-1 K277A)?
**A.** The value was 7.74 kcal/mol.

**Q.** And the “KD(mut) / KD(wt)” value (CGH-1_248-420^K277A; CGH-1 K277A vs WT)?
**A.** The value was ~ 8.1.

**Q.** And the “weakening of binding affinity, factor vs WT” value (CGH-1_248–420 mutants)?
**A.** Its value is 3.4–7.5.

**Q.** And the “− TΔS” value (CGH-1_248-420^Q266A)?
**A.** The value was 4.34 kcal/mol.

**Q.** What about the “KD(mut) / KD(wt)” value (CGH-1_248-420^E396A; CGH-1 E396A vs WT) of the same sequence?
**A.** Its value is ~ 2.5.

**Q.** And the “− TΔS” value (CGH-1_248-420^E396A; pH 7.5, 150 mM NaCl, CGH-1 E396A)?
**A.** The value was 7.92 kcal/mol.

**Q.** What about the “KD(mut) / KD(wt)” value (CGH-1_248-420^4A; 20 °C) of the same sequence?
**A.** Its value is ~ 25.7.

**Q.** And the “binding affinity compared to wildtype (in words)” value (CGH-1_248-420^4A)?
**A.** The value was “dramatically impaired the binding affinity”.

**Q.** And the “binding affinity compared to wildtype (in words)” value (CGH-1_248-420^4A; listed as EDC-3 peptide)?
**A.** Its value is “dramatically disrupted the interaction”.

**Q.** What about the “KD(mut) / KD(wt)” value (CGH-1_248-420^K277E; CGH-1 K277E vs WT) of the same sequence?
**A.** Its value is ~ 17.5.

**Q.** What about the “− TΔS” value (CGH-1_248-420^K277E; pH 7.5, 150 mM NaCl, CGH-1 K277E) of the same sequence?
**A.** The value was 4.48 kcal/mol.
